The target in data set [1] is T1, 5-HT4 receptor (Rattus norvegicus, UniProt Q62758).
T1 construct: muscular sample of mucous membrane in esophgus exentrated from a rat; from tissue; host or cells: rat oesophagus, muscularis mucosae
The experiment in a line: Agonisting Action to 5-HT4 Receptor (relaxation of carbachol-treated oesophageal mucous membrane muscle sample). The class given is cell-based. The settings on record: negative logarithm of concentration causing 50% relaxation, rat esophagus.

Data set [2] concerns dopamine D2 receptor. The experiment in a line: Anti-Dopamine Action (general symptoms including catalepsy and blepharoptosis). The class given is in vivo, rat. As for the experimental part: The compound was orally administered to rats in amount of 100, 300 or 1000 mg/kg to observe for 2 days general symptoms including catalepsy and blepharoptosis due to antagonistic action of the compound to dopamine D2 receptor.

Data set [3] relates to digestive tract. The experiment in a line: Action on Hypermotility of Digestive Tract (acceleration of gastric emptying, phenol red). It is filed as in vivo. The note with it: Rattus norvegicus, oral, rats fasted for 24 hours, phenol red 30 min after administration. As for the experimental part: The compounds obtained by Examples 1, 2 and 5 as well as exemplar known compounds (Metocloplamide and Cysapride) were selected as Test Compounds, and an action of the compounds for accelerating gastric emptying was checked in accordance with the method described by Yokochi et al [" (which can be translated as --Bulletin of Pharmacological Society of Japan--)", Vol. 92, page 297 (1988 )].
Namely, the test compound was orally administered in an amount of 0.3, 1.0, 3.0 or 10 mg/kg to rats fasted for 24 hours, and after 30 minutes from the administration, a coloring matter in a constant amount (phenol red, 100 μg) was also orally administered.
Rate of gastric emptying=100-(B/A)×100
A: Dosing amount of coloring matter, and
B: Remaining amount of coloring matter.
Rate of acceleration=(C-D)×100
C: Rate of gastric emptying in Test Group, and
D: Rate of gastric emptying in Control Group given no Test Compound.

Where [4] appears, read: oral, rats, observed for 2 days.

Each structure is given as a SMILES string. Counter-ions that a name gives are not always drawn.

For orientation: EC50 means the concentration that produces a half-maximal response. The term ED50 denotes the midpoint of the dose-response relation.

T1 sequence (Q62758 whole entry): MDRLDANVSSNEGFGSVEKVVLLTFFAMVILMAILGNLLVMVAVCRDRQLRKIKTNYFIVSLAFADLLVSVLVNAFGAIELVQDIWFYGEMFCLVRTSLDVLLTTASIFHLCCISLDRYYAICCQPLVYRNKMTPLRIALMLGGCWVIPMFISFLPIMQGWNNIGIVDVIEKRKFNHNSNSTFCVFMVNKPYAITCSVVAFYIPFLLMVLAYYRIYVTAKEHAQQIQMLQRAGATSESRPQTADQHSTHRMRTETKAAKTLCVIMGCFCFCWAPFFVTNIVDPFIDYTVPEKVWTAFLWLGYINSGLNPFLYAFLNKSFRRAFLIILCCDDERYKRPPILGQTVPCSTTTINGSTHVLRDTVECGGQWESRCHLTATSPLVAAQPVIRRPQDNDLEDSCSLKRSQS

`CC1Cc2c(N)c(Cl)cc(C(=O)NCCC34CCCN3CCC4)c2O1` (single isomer, unassigned; (+)) [Example 4, (+)-4-Amino-N-[2-(1-azabicyclo[3.3.0]octan-5-yl)ethyl]-5-chloro-2-methyl-2,3-dihydrobenzo[b]furan-7-carboxamide . 1/2 fumarate] had an EC50 in data set [1] of 50.1 nM. Still for that read-out and setting: the result for `CC1Cc2c(N)c(Cl)cc(C(=O)NCCC34CCCN3CCC4)c2O1` (single isomer, unassigned; (-)) [Example 3, (-)-4-Amino-N-[2-(1-azabicyclo[3.3.0]octan-5-yl)ethyl]-5-chloro-2-methyl-2,3-dihydrobenzo[b]furan-7-carboxamide . 1/2 fumarate] reads 20 nM.

Turning to `CC1Cc2c(N)c(Cl)cc(C(=O)NCCC34CCCN3CCC4)c2O1` (centres unmarked) [2 (*), 4-Amino-N-[2-(1-azabicyclo[3.3.0]octan-5-yl)ethyl]-5-chloro-2-methyl-2,3-dihydrobenzo[b]furan-7-carboxamide], the EC50 in data set [1] was 39.8 nM. This EC50 is about 2-fold higher than that of the compound before. On to `COc1cc(N)c(Cl)cc1C(=O)NC1CCN(CCCOc2ccc(F)cc2)CC1OC` (centres unmarked) [Cisapride, reference compound], for which, in data set [1], the response was half-maximal at 39.8 nM (EC50). For the same compound, in data set [2] (setting [4]), the “Influence on central nervous system, 1000 mg/kg” value (from here on “Influence … 1000 mg/kg”) is “++”. The compound further had an ED50 in data set [3] of 6.37 mg/kg.

`Nc1c(Cl)cc(C(=O)NCCC23CCCN2CCC3)c2c1CCO2` [Example 1, 4-Amino-N-[2-(1-azabicyclo[3.3.0]octan-5-yl)ethyl]-5-chloro-2,3-dihydrobenzo[b]furan-7-carboxamide]: the response in data set [1] was half-maximal at 316 nM (EC50). The “Influence … 1000 mg/kg” value in data set [2] (setting [4]) is “-”. The ED50 in data set [3] came to 2.15 mg/kg.

In the case of `CC1Cc2c(N)c(Cl)cc(C(=O)NCCC34CCCN3CCC4)c2O1` (centres unmarked) [Example 2, 4-Amino-N-[2-(1-azabicyclo[3.3.0]octan-5-yl)ethyl]-5-chloro-2-methyl-2,3-dihydrobenzo[b]furan-7-carboxamide], in data set [2] (setting [4]), the “Influence on central nervous system, 100 mg/kg” value is reported as “-” and the “Influence … 1000 mg/kg” value is reported as “-”. In addition, the “Influence on central nervous system, 300 mg/kg” value in data set [2] (oral, rats, 300 mg/kg, observed for 2 days) is given as “-”. Moreover, in data set [3], the ED50 came out at 1.97 mg/kg. With `CC1(C)Cc2c(N)c(Cl)cc(C(=O)NCCC34CCCN3CCC4)c2O1` [Example 5, 4-Amino-N-[2-(1-azabicyclo[3.3.0]octan-5-yl)ethyl]-5-chloro-2,2-dimethyl-2,3-dihydrobenzo[b]furan-7-carboxamide], the half-maximal effective concentration (EC50) in data set [1] is 316 nM. Besides, the “Influence … 1000 mg/kg” value in data set [2] (setting [4]) is “-”. For the same compound, the ED50 in data set [3] worked out at 1.5 mg/kg. Consider `CC1Oc2c(C(=O)NCCC34CCCN3CCC4)cc(Cl)c(N)c2C1C` (centres unmarked) [Example 6, 4-Amino-N-[2-(1-azabicyclo[3.3.0]octan-5-yl)ethyl]-5-chloro-2,3-dimethyl-2,3-dihydrobenzo[b]furan-7-carboxamide], for which a half-maximal response in data set [1] (EC50) required 12.6 nM. Same read-out and setting: the result for `CCC1Cc2c(N)c(Cl)cc(C(=O)NCCC34CCCN3CCC4)c2O1` (centres unmarked) [Example 7, 4-Amino-N-[2-(1-azabicyclo[3.3.0]octan-5-yl)ethyl]-5-chloro-2-ethyl-2,3-dihydrobenzo[b]furan-7-carboxamide] reads 20 nM.

In the case of `CC(=O)Nc1c(Cl)cc(C(=O)NCCC23CCCN2CCC3)c2c1CC(C)O2` (centres unmarked) [Example 8, 4-Acetylamino-N-[2-(1-azabicyclo[3.3.0]octan-5-yl)ethyl]-5-chloro-2-methyl-2,3-dihydrobenzo[b]furan-7-carboxamide], in data set [1], a half-maximal response (EC50) required 316 nM. The same measure, in the same setting: under `CC1Cc2cc(Cl)cc(C(=O)NCCC34CCCN3CCC4)c2O1` (centres unmarked) [Example 9, N-[2-(1-Azabicyclo[3.3.0]octan-5-yl)ethyl]-5-chloro-2-methyl-2,3-dihydrobenzo[b]furan-7-carboxamide] stands 100 nM; under `CC1Cc2c(N)ccc(C(=O)NCCC34CCCN3CCC4)c2O1` (centres unmarked) [Example 10, 4-Amino-N-[2-(1-azabicyclo[3.3.0]octan-5-yl)ethyl]-2-methyl-2,3-dihydrobenzo[b]furan-7-carboxamide], 1000 nM. For the compound `CCN(CC)CCNC(=O)c1cc(Cl)c(N)cc1OC` [Metoclopramide, 4-amino-5-chloro-N-[(2-diethylamino)ethyl]-2-methoxybenzamide, reference compound], in data set [2] (rat, in vivo, po), the “Influence on central nervous system, 100 mg/kg” value is reported as “++”. This compound also registered a median effective dose (ED50) in data set [3] of 16.3 mg/kg.
